Consider 18 molecules from US5945404A, “21-Substituted steroid compound” (priority 1993, dated 1999).

Data set [1] deals with croton oil-induced granuloma. In words: Croton Oil-induced Granuloma (granuloma pouch). In kind it is in vivo, male Sprague-Dawley rats. As to conditions: for inhibition in vivo at 0.01 mg / inhibition in vivo at 0.1 mg / inhibition in vivo at 1 mg: Rattus norvegicus, 168 h. How it is done:
Groups of 5 male Sprague-Dawley rats each weighing 160-180 g were used. Under ether anesthesia, the dorsum of animals was closely clipped, and air sac was formed by injecting air (20 ml) subcutaneously. Next day cotton seed oil containing 1% croton oil was injected into the air sac. Drugs to be tested were suspended in the cotton seed oil containing 1% croton oil, and administered. After 7 days, the blood was taken from the animal under ether anesthesia. Then, the granuloma pouch fluid (exudate) was collected, and the fluid volume was measured. The pouch wall formed around granuloma and thymus were also excised and weighed.

In a further data set the test system is granuloma. Description: Inhibitory Effects on Granuloma Growth (Paper Disk Method). Type of data set: in vivo, male Sprague-Dawley rats. To be noted: Rattus norvegicus, topical, 168 h, rat, paper disk; ointment 0.1%, 50 mg once a day, 7 days; read-out: Weight of granuloma, per cent of change of the controls. As to the method:
Ointment to be tested was prepared usign white soft paraffin as the base and containing dexamethasone at 0.1% concentration.
Groups of 5 male Sprague-Dawley rats each weighing 150-170 g were used. Under ether anesthesia, the dorsum of animals was closely clipped, and medianly incised. After each one pre-weighed paper disk (8-mm diameter, 1-mm thick, weighing about 30 mg; Toyo-Roshi filter paper) was inserted subcutaneously into both sides of the dorsal incision, the incision was sutured. In order to prevent bacterial infection, penicillin G potassium salt (2,000 units) per rat was intramascularly injected after the surgery. Base or ointment to be tested (50 mg each) was rubbed carefully into the skin over the paper disk inserted site, for 30 seconds once a day for the duration of 7 days. Rats were slipped plastic cangs on to prevent them from licking the drug applied sites. On the 8th day of the test, rats were sacrificed under ether anesthesia, and granulomas were carefully excised. Granulomas were dried at 40° C. for 24 h, and their dry weights were recorded.
Inhibitory effects of dexamethasone derivatives on the weight increase of granuloma of experimental animals as compared with those of control animals are shown as per cent of inhibition ov er the control in Table 1. Figures wihth asterisks in the table indicate signfiicant difference. The same will be applied to the following other tables.

Where [2] appears, read: 0.01 mg/rat, 7 days, read-out: Effects on granuloma weight, per cent of inhibition over the control.
The mark [3] stands for this setting: 0.01 mg/rat, 7 days, read-out: Effects on pouch fluid (exudate) volume, per cent of inhibition over the control.
Setting [4] is: 0.1 mg/rat, 7 days, read-out: Effects on granuloma weight, per cent of inhibition over the control.
[5] abbreviates: 0.1 mg/rat, 7 days, read-out: Effects on pouch fluid (exudate) volume, per cent of inhibition over the control.
[6] abbreviates: 1.0 mg/rat, 7 days, read-out: Effects on granuloma weight, per cent of inhibition over the control.
[7] abbreviates: 1.0 mg/rat, 7 days, read-out: Effects on pouch fluid (exudate) volume, per cent of inhibition over the control.
Setting [8] is: read-out: Effects on granuloma weight, per cent of inhibition over the control.

Several values for one entry are separate records, joined by “and”; a condition that tells them apart may be missing. Equal values may be shown once. Read-outs that look alike come from different tables or passages of the source.

On to `C[C@@H]1C[C@H]2[C@@H]3C[C@H](F)C4=CC(=O)C=C[C@]4(C)[C@@]3(F)[C@@H](O)C[C@]2(C)[C@H]1C(=O)CO[C@@H]1O[C@H](COC(=O)c2ccccc2)[C@@H](OC(=O)c2ccccc2)[C@H](OC(=O)c2ccccc2)[C@H]1OC(=O)c1ccccc1` [Compound 110β, glucosyldiflucortolone (benzoyl derivative)], for which the inhibition in vivo at 0.01 mg in data set [1] (setting [2]) was found to be 16.8 ± 7.1%; in data set [1] (setting [3]) it was 34.4 ± 8.9%. Moreover, the figures for the inhibition in vivo at 0.1 mg in data set [1] (setting [4]) and in data set [1] (setting [5]) were 58.7 ± 1.4% and 79.6 ± 8.5%, respectively. Also, the inhibition in vivo at 1 mg in data set [1] (setting [6]) was found to be 70.3 ± 1.9%; in data set [1] (setting [7]) it was 97.2 ± 0.5%.
Take `C[C@@H]1C[C@H]2[C@@H]3C[C@H](F)C4=CC(=O)C=C[C@]4(C)[C@@]3(F)[C@@H](O)C[C@]2(C)[C@H]1C(=O)CO[C@@H]1O[C@H](COC(=O)c2ccc(Cl)cc2)[C@@H](OC(=O)c2ccc(Cl)cc2)[C@H](OC(=O)c2ccc(Cl)cc2)[C@H]1OC(=O)c1ccc(Cl)cc1` [Compound 112β, glucosyldiflucortolone (p-chlorobenzoyl derivative)]: the values for the inhibition in vivo at 0.01 mg in data set [1] (setting [2]) and in data set [1] (setting [3]) were 15.9 ± 6.9% and 36.1 ± 9.2%, respectively. The values for the inhibition in vivo at 0.1 mg in data set [1] (setting [4]) and in data set [1] (setting [5]) were 27.1 ± 2.4% and 43.7 ± 2.5%, respectively. Besides, the inhibition in vivo at 1 mg in data set [1] (setting [6]) is 61.3 ± 2.2%; in data set [1] (setting [7]), 93.1 ± 1.6%.
`Cc1ccc(C(=O)OC[C@H]2O[C@@H](OCC(=O)[C@@]3(O)[C@H](C)C[C@H]4[C@@H]5CCC6=CC(=O)C=C[C@]6(C)[C@@]5(F)[C@@H](O)C[C@@]43C)[C@H](OC(=O)c3ccc(C)cc3)[C@@H](OC(=O)c3ccc(C)cc3)[C@@H]2OC(=O)c2ccc(C)cc2)cc1` [Compound 4β]: in the data set on granuloma, the change in vivo at 0.1 %, 50 mg was -7.9 ± 5%.
As for `C[C@@H]1C[C@H]2[C@@H]3CCC4=CC(=O)C=C[C@]4(C)[C@@]3(F)[C@@H](O)C[C@]2(C)[C@@]1(O)C(=O)CO[C@@H]1O[C@H](C(=O)O)[C@@H](O)[C@H](O)[C@H]1O` [Compound 55β, β-glucuronyldexamethasone], the change in vivo at 0.1 %, 50 mg with granuloma is -37.4 ± 7.1%.
Still for that read-out and setting: under `Cc1ccc(C(=O)OC[C@H]2O[C@@H](OCC(=O)[C@@]3(O)[C@H](C)C[C@H]4[C@@H]5CCC6=CC(=O)C=C[C@]6(C)[C@@]5(F)[C@@H](O)C[C@@]43C)[C@H](OC(=O)c3ccc(C)cc3)[C@@H](OC(=O)c3ccc(C)cc3)[C@H]2OC(=O)c2ccc(C)cc2)cc1` [Compound 14β] stands -8.7 ± 7.2%.
Same read-out and setting: the same measure for `Cc1ccc(C(=O)OC[C@H]2O[C@@H](OCC(=O)[C@H]3[C@H](C)C[C@H]4[C@@H]5C[C@H](F)C6=CC(=O)C=C[C@]6(C)[C@@]5(F)[C@@H](O)C[C@@]43C)[C@H](OC(=O)c3ccc(C)cc3)[C@@H](OC(=O)c3ccc(C)cc3)[C@@H]2OC(=O)c2ccc(C)cc2)cc1` [Compound 109β, Glucosyldiflucortolone (p-toluoyl derivative)]: -0.2 ± 3.7%.
For `CCCC(=O)O[C@]1(C(=O)COC(C)=O)CC[C@H]2[C@@H]3C[C@H](F)C4=CC(=O)C=C[C@]4(C)[C@@]3(F)[C@@H](O)C[C@@]21C` [Diflupredonate, reference compound], the “Effects on thymus weight, per cent of inhibition over the control thymus weight” value was found to be 14.7 ± 10.4 per cent in data set [1] (0.01 mg/rat, 7 days); 71.2 ± 2.9 per cent in data set [1] (0.1 mg/rat, 7 days); 71.8 ± 3.2 per cent in data set [1] (1.0 mg/rat, 7 days). For the same molecule, the inhibition in vivo at 0.01 mg in data set [1] (setting [2]) was -11 ± 23.1%; in data set [1] (setting [3]) it was 17.4 ± 13.5%. The inhibition in vivo at 0.1 mg stood at 35 ± 10.3% in data set [1] (setting [4]) and 65.3 ± 12.1% in data set [1] (setting [5]). In addition, the figures for the inhibition in vivo at 1 mg in data set [1] (setting [6]) and in data set [1] (setting [7]) were 78.8 ± 5% and 96.2 ± 1.2%, respectively.
Consider `CC(=O)N[C@H]1[C@H](OCC(=O)[C@@]2(O)[C@H](C)C[C@H]3[C@@H]4CCC5=CC(=O)C=C[C@]5(C)[C@@]4(F)[C@@H](O)C[C@@]32C)O[C@H](CO)[C@H](O)[C@@H]1O` [Compound 45β, N-acetylgalactosaminyldexamethasone], for which, in the data set on granuloma, the change in vivo at 0.1 %, 50 mg is -28.1 ± 3.5%.
Regarding `CC(=O)N[C@H]1[C@H](OCC(=O)[C@@]2(O)[C@H](C)C[C@H]3[C@@H]4CCC5=CC(=O)C=C[C@]5(C)[C@@]4(F)[C@@H](O)C[C@@]32C)O[C@H](COC(C)=O)[C@H](OC(C)=O)[C@@H]1OC(C)=O` [Compound 44β], in the data set with granuloma, the change in vivo at 0.1 %, 50 mg is -16.5 ± 3%.
Regarding `COC(=O)[C@H]1O[C@@H]2OC(C)(OCC(=O)[C@@]3(O)[C@H](C)C[C@H]4[C@@H]5CCC6=CC(=O)C=C[C@]6(C)[C@@]5(F)[C@@H](O)C[C@@]43C)O[C@@H]2[C@@H](OC(C)=O)[C@@H]1OC(C)=O` (stereo partly shown) [Compound 54'], the change in vivo at 0.1 %, 50 mg in the data set with granuloma was -44.8 ± 2.4%.
For `CC(=O)N[C@H]1[C@H](OCC(=O)[C@@]2(O)[C@H](C)C[C@H]3[C@@H]4CCC5=CC(=O)C=C[C@]5(C)[C@@]4(F)[C@@H](O)C[C@@]32C)O[C@H](COC(C)=O)[C@@H](OC(C)=O)[C@@H]1OC(C)=O` [Compound 34β, N-acetylglucosaminyldexamethasone], in the data set with granuloma, the change in vivo at 0.1 %, 50 mg was -21.3 ± 3.9%.
On to `Cc1ccc(C(=O)OC[C@H]2O[C@@H](OCC(=O)[C@@]3(O)[C@@H](C)C[C@H]4[C@@H]5CCC6=CC(=O)C=C[C@]6(C)[C@@]5(F)[C@@H](O)C[C@@]43C)[C@H](OC(=O)c3ccc(C)cc3)[C@@H](OC(=O)c3ccc(C)cc3)[C@@H]2OC(=O)c2ccc(C)cc2)cc1` [Compound 91β, Glucosylbetamethasone (per Tol)], for which the inhibition in vivo at 0.01 mg is 17.1 ± 6.7% in data set [1] (setting [2]) and 25.3 ± 5.3% in data set [1] (setting [3]). The inhibition in vivo at 0.1 mg in data set [1] (setting [4]) worked out at 6.9 ± 5.1%; in data set [1] (setting [5]) it was 18.4 ± 6.1%. The inhibition in vivo at 1 mg is 4.3 ± 8.2% in data set [1] (setting [6]) and 18.9 ± 8.8% in data set [1] (setting [7]).
On to “Diflurasone acetate [reference compound]”, for which the “Effects on granuloma weight, per cent of inhibition over the control” value was -13.1 ± 13.3 per cent in data set [1] (0.01 mg/rat, 7 days); 4.0 ± 10.5 per cent in data set [1] (0.1 mg/rat, 7 days); 11.7 ± 12.4 per cent in data set [1] (1.0 mg/rat, 7 days).
In the case of `CC(=O)OC[C@H]1O[C@@H](OCC(=O)[C@H]2[C@H](C)C[C@H]3[C@@H]4C[C@H](F)C5=CC(=O)C=C[C@]5(C)[C@@]4(F)[C@@H](O)C[C@@]32C)[C@H](OC(C)=O)[C@@H](OC(C)=O)[C@@H]1OC(C)=O` [Compound 113β, glucosyldiflucortolone (acetyl derivative)], the inhibition in vivo at 0.01 mg in data set [1] (setting [2]) stood at 47.4 ± 11%; in data set [1] (setting [3]), 90.5 ± 6.6%. The inhibition in vivo at 0.1 mg came to 60.8 ± 9.3% in data set [1] (setting [4]) and 97.1 ± 0.5% in data set [1] (setting [5]). In addition, the inhibition in vivo at 1 mg came to 90.5 ± 0.6% in data set [1] (setting [6]) and 97.5 ± 0.7% in data set [1] (setting [7]).
On to `CCC(=O)O[C@]1(C(=O)COC(C)=O)[C@@H](C)C[C@H]2[C@@H]3CCC4=CC(=O)C=C[C@]4(C)[C@@]3(F)[C@@H](O)C[C@@]21C` [Betamethasone acetate propionate, reference compound], for which the “Effects on granuloma weight, per cent of inhibition over the control” value in data set [1] (0.01 mg/rat, 7 days) came out at 21.2 ± 6.4 per cent; in data set [1] (0.1 mg/rat, 7 days), 26.0 ± 6.9 per cent. Further, the “Effects on pouch fluid (exudate) volume, per cent of inhibition over the control” value in data set [1] (rat, in vivo) is 27.6 ± 8.1 and 43.6 ± 4.7.
Consider `CCCCC(=O)OCC(=O)[C@H]1[C@H](C)C[C@H]2[C@@H]3C[C@H](F)C4=CC(=O)C=C[C@]4(C)[C@@]3(F)[C@@H](O)C[C@@]21C` [Diflucortolone valerate, reference compound], for which, in data set [1] (setting [8]), the inhibition in vivo at 0.01 mg is 12.8 ± 5.1% and the inhibition in vivo at 1 mg was found to be 66 ± 7.1%.
Regarding `CCCCC(=O)O[C@]1(C(=O)CO)[C@@H](C)C[C@H]2[C@@H]3CCC4=CC(=O)C=C[C@]4(C)[C@@]3(F)[C@@H](O)C[C@@]21C` [Betamethasone valerate, reference compound], the “Effects on thymus weight, per cent of inhibition over the control thymus weight” value in data set [1] (1.0 mg/rat, 7 days) was 37.0 ± 3.0 per cent and 58.9 ± 3.3 per cent. Besides, the inhibition in vivo at 1 mg was 18.7 ± 11.7% in data set [1] (setting [6]) and 23.9 ± 12.1% in data set [1] (setting [7]).
In the case of `C[C@H]1C[C@H]2[C@@H]3CCC4=CC(=O)C=C[C@]4(C)[C@@]3(F)[C@@H](O)C[C@]2(C)[C@@]1(O)C(=O)CO[C@@H]1O[C@H](COC(=O)c2ccccc2)[C@@H](OC(=O)c2ccccc2)[C@H](OC(=O)c2ccccc2)[C@H]1OC(=O)c1ccccc1` [Compound 100β, glucosylbetamethasone (benzoyl derivative)], the inhibition in vivo at 0.01 mg was 11 ± 6.5% in data set [1] (setting [2]) and 20.8 ± 11.7% in data set [1] (setting [3]). Besides, the inhibition in vivo at 0.1 mg in data set [1] (setting [4]) was determined as 4.1 ± 11.3%; in data set [1] (setting [5]), 17.5 ± 5.9%. For the same molecule, the inhibition in vivo at 1 mg in data set [1] (setting [6]) came out at 60.5 ± 5.8%; in data set [1] (setting [7]), 69.4 ± 6.7%.
